Measurements as given in the kinase profiling compilation of Christmann-Franck et al. (2016).

Columns and labels:
Experiment in all cases: KINOMEscan competition binding
[1] = tested on: ABL1 (human), P00519 [E255K]
[2] = biological target: ACVR2B (human) (UniProt Q13705)
[3] = biological target: ANKK1 (human) (UniProt Q8NFD2)
[4] = biological target: AURKC (human) (UniProt Q9UQB9)
[5] = biological target: CAMK2G (human) (UniProt Q13555)
[6] = biological target: CAMKK2 (human) (UniProt Q96RR4)
[7] = biological target: CDC42BPB (human) (UniProt Q9Y5S2)
[8] = biological target: CSNK1G1 (human) (UniProt Q9HCP0)
[9] = biological target: CSNK1G3 (human) (UniProt Q9Y6M4)
[10] = biological target: DYRK2 (human) (UniProt Q92630)
Chain of DYRK2 (human) (Q92630 whole entry, looked up): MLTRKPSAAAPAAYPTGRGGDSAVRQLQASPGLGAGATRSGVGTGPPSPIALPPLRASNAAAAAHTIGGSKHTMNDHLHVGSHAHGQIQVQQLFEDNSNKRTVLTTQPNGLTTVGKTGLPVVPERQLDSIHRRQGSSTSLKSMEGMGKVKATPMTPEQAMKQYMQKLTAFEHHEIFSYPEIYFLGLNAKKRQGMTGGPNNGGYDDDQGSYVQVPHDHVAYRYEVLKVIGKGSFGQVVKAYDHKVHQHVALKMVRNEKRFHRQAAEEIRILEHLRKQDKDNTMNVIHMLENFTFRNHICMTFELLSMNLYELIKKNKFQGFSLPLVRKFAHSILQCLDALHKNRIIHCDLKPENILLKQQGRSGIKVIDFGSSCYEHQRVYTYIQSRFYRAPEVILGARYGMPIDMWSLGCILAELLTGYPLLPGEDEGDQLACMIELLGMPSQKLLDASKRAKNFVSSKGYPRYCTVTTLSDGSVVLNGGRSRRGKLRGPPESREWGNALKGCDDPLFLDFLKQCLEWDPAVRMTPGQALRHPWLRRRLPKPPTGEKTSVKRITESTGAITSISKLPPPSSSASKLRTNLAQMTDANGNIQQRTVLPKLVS

[11] = tested on: EGFR (human), P00533 [A750P; 747-749 del]
[12] = tested on: EGFR (human), P00533 [L861Q]
[13] = biological target: ERBB3 (human) (UniProt P21860)
Chain of ERBB3 (human) (P21860 whole entry, looked up): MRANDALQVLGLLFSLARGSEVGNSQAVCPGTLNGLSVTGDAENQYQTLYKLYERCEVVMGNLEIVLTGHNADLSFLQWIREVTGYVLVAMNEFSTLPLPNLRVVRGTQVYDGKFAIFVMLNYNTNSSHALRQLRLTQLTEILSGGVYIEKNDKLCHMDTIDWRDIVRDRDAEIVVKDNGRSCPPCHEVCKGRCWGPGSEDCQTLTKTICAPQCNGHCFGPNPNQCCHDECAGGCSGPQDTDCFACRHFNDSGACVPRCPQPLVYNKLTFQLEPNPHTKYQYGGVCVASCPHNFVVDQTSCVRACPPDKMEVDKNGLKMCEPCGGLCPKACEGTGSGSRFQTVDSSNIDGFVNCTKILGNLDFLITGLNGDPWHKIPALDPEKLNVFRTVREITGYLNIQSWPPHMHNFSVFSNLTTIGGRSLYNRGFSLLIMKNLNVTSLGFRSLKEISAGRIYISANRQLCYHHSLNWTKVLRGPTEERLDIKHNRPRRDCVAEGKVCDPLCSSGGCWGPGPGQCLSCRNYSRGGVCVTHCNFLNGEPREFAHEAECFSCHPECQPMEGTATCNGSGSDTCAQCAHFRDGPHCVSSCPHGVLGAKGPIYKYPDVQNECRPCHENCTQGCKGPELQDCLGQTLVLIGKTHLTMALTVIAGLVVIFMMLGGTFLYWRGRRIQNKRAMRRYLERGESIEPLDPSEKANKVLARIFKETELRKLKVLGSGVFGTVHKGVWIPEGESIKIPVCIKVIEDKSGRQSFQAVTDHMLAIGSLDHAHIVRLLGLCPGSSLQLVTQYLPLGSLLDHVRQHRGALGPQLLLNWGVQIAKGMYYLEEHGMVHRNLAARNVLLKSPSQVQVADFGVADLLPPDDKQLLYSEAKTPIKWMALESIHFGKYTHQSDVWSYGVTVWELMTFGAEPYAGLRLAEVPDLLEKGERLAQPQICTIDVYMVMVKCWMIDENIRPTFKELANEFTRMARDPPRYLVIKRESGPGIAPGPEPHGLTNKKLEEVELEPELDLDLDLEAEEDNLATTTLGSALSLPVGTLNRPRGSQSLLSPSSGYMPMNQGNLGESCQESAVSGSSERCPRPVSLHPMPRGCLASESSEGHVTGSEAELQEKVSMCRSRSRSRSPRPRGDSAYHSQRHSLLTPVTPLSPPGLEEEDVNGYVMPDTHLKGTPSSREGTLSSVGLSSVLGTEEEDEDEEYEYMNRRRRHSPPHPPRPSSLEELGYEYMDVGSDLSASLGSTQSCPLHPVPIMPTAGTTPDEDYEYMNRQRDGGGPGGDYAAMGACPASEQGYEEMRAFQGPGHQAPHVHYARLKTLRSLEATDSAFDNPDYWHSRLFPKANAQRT

[14] = biological target: ERBB4 (human) (UniProt Q15303)
[15] = tested on: FLT3 (human), P36888 [R834Q]
[16] = biological target: FYN (human) (UniProt P06241)
Chain of FYN (human) (P06241 whole entry, looked up): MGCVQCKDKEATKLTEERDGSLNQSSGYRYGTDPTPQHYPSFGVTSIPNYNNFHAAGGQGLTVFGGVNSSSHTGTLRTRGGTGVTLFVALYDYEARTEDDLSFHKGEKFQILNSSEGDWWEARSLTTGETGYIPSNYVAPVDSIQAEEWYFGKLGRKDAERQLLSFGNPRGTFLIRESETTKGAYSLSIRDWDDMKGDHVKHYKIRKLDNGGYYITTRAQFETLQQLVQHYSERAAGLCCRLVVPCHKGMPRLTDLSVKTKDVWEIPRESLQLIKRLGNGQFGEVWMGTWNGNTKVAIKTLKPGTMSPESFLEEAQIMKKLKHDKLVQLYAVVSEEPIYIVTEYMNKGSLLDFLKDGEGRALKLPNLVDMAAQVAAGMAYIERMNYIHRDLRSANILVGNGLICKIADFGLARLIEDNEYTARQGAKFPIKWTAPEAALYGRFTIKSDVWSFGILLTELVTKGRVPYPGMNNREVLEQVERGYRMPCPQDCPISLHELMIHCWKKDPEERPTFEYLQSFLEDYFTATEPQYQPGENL

[17] = biological target: GSK3A (human) (UniProt P49840)
Chain of GSK3A (human) (P49840 whole entry, looked up): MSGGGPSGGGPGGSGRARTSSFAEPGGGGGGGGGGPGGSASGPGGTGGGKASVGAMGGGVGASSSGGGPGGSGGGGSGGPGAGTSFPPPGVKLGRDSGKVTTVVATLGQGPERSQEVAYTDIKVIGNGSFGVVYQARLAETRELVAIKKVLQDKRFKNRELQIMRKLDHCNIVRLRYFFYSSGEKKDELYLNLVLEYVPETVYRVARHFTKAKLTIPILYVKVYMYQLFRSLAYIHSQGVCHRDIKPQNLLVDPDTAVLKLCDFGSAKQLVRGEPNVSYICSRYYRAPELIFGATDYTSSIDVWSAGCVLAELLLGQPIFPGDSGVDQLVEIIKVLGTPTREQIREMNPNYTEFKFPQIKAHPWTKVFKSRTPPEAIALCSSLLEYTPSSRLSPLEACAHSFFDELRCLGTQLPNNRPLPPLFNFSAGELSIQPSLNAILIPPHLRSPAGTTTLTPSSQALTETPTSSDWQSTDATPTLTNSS

[18] = biological target: MAP2K1 (human) (UniProt Q02750)
[19] = biological target: MAP3K13 (human) (UniProt O43283)
[20] = biological target: MAP3K2 (human) (UniProt Q9Y2U5)
[21] = biological target: MAPK11 (human) (UniProt Q15759)
[22] = biological target: MARK1 (human) (UniProt Q9P0L2)
Chain of MARK1 (human) (Q9P0L2 whole entry, looked up): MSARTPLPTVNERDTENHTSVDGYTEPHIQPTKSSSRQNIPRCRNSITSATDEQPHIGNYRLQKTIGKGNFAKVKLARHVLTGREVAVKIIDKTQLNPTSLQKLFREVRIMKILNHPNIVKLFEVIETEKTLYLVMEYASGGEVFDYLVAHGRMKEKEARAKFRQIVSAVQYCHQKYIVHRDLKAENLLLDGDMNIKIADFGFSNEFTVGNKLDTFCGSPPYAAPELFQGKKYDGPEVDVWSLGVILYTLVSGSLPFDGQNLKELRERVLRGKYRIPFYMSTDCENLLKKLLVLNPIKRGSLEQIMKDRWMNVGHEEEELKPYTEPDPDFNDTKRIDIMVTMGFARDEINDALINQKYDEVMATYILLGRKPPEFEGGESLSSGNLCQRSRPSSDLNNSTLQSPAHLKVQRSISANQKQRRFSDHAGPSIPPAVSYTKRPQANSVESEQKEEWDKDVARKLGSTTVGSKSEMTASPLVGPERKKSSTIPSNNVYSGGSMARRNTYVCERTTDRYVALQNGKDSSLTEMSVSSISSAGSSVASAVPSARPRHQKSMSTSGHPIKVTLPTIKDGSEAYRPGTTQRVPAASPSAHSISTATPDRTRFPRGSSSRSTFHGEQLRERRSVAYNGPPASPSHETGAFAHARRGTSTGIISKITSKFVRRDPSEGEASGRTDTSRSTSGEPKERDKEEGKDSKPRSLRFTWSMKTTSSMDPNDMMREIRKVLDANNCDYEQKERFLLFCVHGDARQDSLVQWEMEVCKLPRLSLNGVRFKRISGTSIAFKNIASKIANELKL

[23] = tested on: MET (human), P08581 [M1250T]
[24] = biological target: MYLK (human) (UniProt Q15746)
[25] = biological target: NEK3 (human) (UniProt P51956)
[26] = tested on: PIK3CA (human), P42336 [E542K]
[27] = biological target: PIM2 (human) (UniProt Q9P1W9)
[28] = biological target: PIP5K1A (human) (UniProt Q99755)
[29] = biological target: PKMYT1 (human) (UniProt Q99640)
[30] = biological target: PKN1 (human) (UniProt Q16512)
[31] = biological target: PRKCE (human) (UniProt Q02156)
[32] = biological target: PRKCI (human) (UniProt P41743)
[33] = biological target: PRKCQ (human) (UniProt Q04759)
[34] = tested on: RET (human), P07949 [V804M]
[35] = biological target: RIOK2 (human) (UniProt Q9BVS4)
Chain of RIOK2 (human) (Q9BVS4 whole entry, looked up): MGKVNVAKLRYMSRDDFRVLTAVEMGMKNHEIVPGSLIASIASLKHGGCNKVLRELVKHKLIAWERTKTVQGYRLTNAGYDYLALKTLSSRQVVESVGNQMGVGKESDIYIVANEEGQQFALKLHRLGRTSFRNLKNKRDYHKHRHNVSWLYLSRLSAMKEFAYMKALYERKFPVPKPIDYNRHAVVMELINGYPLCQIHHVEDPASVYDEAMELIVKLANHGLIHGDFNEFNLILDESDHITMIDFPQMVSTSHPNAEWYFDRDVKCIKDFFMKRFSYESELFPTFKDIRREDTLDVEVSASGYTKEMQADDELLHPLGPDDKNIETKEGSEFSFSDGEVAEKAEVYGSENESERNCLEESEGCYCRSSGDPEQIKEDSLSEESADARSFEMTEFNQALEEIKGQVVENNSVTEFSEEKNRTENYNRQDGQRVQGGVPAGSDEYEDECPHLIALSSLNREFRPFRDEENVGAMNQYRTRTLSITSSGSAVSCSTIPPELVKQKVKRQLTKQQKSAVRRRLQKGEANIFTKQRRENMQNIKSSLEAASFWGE

[36] = biological target: RPS6KA4 KD1 (human) (UniProt O75676)
[37] = biological target: RPS6KA5 KD1 (human) (UniProt O75582)
[38] = biological target: SIK3 (human) (UniProt Q9Y2K2)
[39] = biological target: SRPK2 (human) (UniProt P78362)
[40] = biological target: STK3 (human) (UniProt Q13188)
[41] = biological target: STK32C (human) (UniProt Q86UX6)
[42] = biological target: WEE1 (human) (UniProt P30291)

Chain of ANKK1 (human) (Q8NFD2 whole entry, looked up): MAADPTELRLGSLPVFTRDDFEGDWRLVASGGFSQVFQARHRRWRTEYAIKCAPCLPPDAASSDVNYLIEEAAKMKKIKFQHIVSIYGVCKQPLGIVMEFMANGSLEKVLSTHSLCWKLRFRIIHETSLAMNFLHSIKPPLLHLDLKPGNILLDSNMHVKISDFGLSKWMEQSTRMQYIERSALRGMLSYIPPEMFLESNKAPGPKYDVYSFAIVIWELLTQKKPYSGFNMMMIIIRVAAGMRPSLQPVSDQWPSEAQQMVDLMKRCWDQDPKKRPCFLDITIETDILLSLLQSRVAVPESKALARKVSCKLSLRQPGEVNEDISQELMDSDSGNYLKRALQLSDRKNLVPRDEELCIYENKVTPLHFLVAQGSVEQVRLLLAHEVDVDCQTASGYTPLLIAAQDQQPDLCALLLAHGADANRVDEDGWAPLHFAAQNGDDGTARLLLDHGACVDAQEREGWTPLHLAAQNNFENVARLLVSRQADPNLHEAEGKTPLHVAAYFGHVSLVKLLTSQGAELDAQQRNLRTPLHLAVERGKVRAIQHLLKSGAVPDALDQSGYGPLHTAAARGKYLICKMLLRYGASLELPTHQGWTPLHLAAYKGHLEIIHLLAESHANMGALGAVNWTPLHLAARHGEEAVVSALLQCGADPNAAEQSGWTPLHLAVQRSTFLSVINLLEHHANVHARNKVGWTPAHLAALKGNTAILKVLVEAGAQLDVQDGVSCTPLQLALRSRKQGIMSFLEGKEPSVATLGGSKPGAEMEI

Q: Which results are given for `CN(C)C/C=C/C(=O)Nc1cccc(C(=O)Nc2ccc(Nc3nccc(-c4cccnc4)n3)cc2)c1`?
A: kinase still bound, per cent of control ([1]; compound 1.0 µM): 43%; kinase still bound, per cent of control ([2]; compound 1.0 µM): 56%; kinase still bound, per cent of control ([3]; compound 1.0 µM): 50%; kinase still bound, per cent of control ([4]; compound 1.0 µM): 33%; kinase still bound, per cent of control ([5]; compound 1.0 µM): 99%; kinase still bound, per cent of control ([6]; compound 1.0 µM): 40%; kinase still bound, per cent of control ([7]; compound 1.0 µM): 93%; kinase still bound, per cent of control ([8]; compound 1.0 µM): 69%; kinase still bound, per cent of control ([9]; compound 1.0 µM): 66%; Kd [10]: 120 nM; kinase still bound, per cent of control ([10]; compound 1.0 µM): 3.2%; kinase still bound, per cent of control ([11]; compound 1.0 µM): 87%; kinase still bound, per cent of control ([12]; compound 1.0 µM): 84%; kinase still bound, per cent of control ([13]; compound 1.0 µM): 100%; kinase still bound, per cent of control ([14]; compound 1.0 µM): 100%; kinase still bound, per cent of control ([15]; compound 1.0 µM): 74%; kinase still bound, per cent of control ([16]; compound 1.0 µM): 90%; kinase still bound, per cent of control ([17]; compound 1.0 µM): 65%; kinase still bound, per cent of control ([18]; compound 1.0 µM): 46%; kinase still bound, per cent of control ([19]; compound 1.0 µM): 100%; kinase still bound, per cent of control ([20]; compound 1.0 µM): 100%; kinase still bound, per cent of control ([21]; compound 1.0 µM): 95%; kinase still bound, per cent of control ([22]; compound 1.0 µM): 68%; kinase still bound, per cent of control ([23]; compound 1.0 µM): 100%; kinase still bound, per cent of control ([24]; compound 1.0 µM): 100%; kinase still bound, per cent of control ([25]; compound 1.0 µM): 6.8%; kinase still bound, per cent of control ([26]; compound 1.0 µM): 82%; kinase still bound, per cent of control ([27]; compound 1.0 µM): 100%; kinase still bound, per cent of control ([28]; compound 1.0 µM): 18%; kinase still bound, per cent of control ([29]; compound 1.0 µM): 100%; kinase still bound, per cent of control ([30]; compound 1.0 µM): 100%; kinase still bound, per cent of control ([31]; compound 1.0 µM): 61%; kinase still bound, per cent of control ([32]; compound 1.0 µM): 100%; kinase still bound, per cent of control ([33]; compound 1.0 µM): 100%; kinase still bound, per cent of control ([34]; compound 1.0 µM): 100%; Kd [35]: 30 nM; kinase still bound, per cent of control ([35]; compound 1.0 µM): 2.2%; kinase still bound, per cent of control ([36]; compound 1.0 µM): 82%; kinase still bound, per cent of control ([37]; compound 1.0 µM): 100%; kinase still bound, per cent of control ([38]; compound 1.0 µM): 100%; kinase still bound, per cent of control ([39]; compound 1.0 µM): 70%; kinase still bound, per cent of control ([40]; compound 1.0 µM): 87%; kinase still bound, per cent of control ([41]; compound 1.0 µM): 98%; kinase still bound, per cent of control ([42]; compound 1.0 µM): 84%

Q: `Cc1ccc(NC(=O)c2ccc(NC(=O)/C=C/CN(C)C)cc2)cc1Nc1nccc(-c2cccnc2)n1` was tested. Which kinase still bound, per cent of control ([1]; compound 10.0 µM) did it give?
A: 64%

Q: What about the kinase still bound, per cent of control ([2]; compound 10.0 µM) of the same compound?
A: 84%

Q: And the kinase still bound, per cent of control ([3]; compound 10.0 µM)?
A: 13%

Q: What about the kinase still bound, per cent of control ([4]; compound 10.0 µM) of the same compound?
A: 67%

Q: And the kinase still bound, per cent of control ([5]; compound 10.0 µM)?
A: 95%

Q: What about the kinase still bound, per cent of control ([6]; compound 10.0 µM) of the same compound?
A: 56%

Q: What about the kinase still bound, per cent of control ([7]; compound 10.0 µM) of the same compound?
A: 78%

Q: What about the kinase still bound, per cent of control ([8]; compound 10.0 µM) of the same compound?
A: 85%

Q: And the kinase still bound, per cent of control ([9]; compound 10.0 µM)?
A: 71%

Q: And the kinase still bound, per cent of control ([10]; compound 10.0 µM)?
A: 36%

Q: And the kinase still bound, per cent of control ([11]; compound 10.0 µM)?
A: 59%

Q: And the kinase still bound, per cent of control ([12]; compound 10.0 µM)?
A: 45%

Q: And the kinase still bound, per cent of control ([13]; compound 10.0 µM)?
A: 100%

Q: What about the kinase still bound, per cent of control ([14]; compound 10.0 µM) of the same compound?
A: 100%

Q: What about the kinase still bound, per cent of control ([15]; compound 10.0 µM) of the same compound?
A: 56%

Q: What about the kinase still bound, per cent of control ([16]; compound 10.0 µM) of the same compound?
A: 95%

Q: And the kinase still bound, per cent of control ([17]; compound 10.0 µM)?
A: 100%

Q: What about the kinase still bound, per cent of control ([18]; compound 10.0 µM) of the same compound?
A: 95%

Q: What about the kinase still bound, per cent of control ([19]; compound 10.0 µM) of the same compound?
A: 89%

Q: And the kinase still bound, per cent of control ([20]; compound 10.0 µM)?
A: 84%

Q: And the kinase still bound, per cent of control ([21]; compound 10.0 µM)?
A: 49%

Q: And the kinase still bound, per cent of control ([22]; compound 10.0 µM)?
A: 93%

Q: And the kinase still bound, per cent of control ([23]; compound 10.0 µM)?
A: 100%

Q: What about the kinase still bound, per cent of control ([24]; compound 10.0 µM) of the same compound?
A: 73%

Q: And the kinase still bound, per cent of control ([25]; compound 10.0 µM)?
A: 99%

Q: And the kinase still bound, per cent of control ([26]; compound 10.0 µM)?
A: 100%

Q: And the kinase still bound, per cent of control ([27]; compound 10.0 µM)?
A: 100%

Q: And the kinase still bound, per cent of control ([28]; compound 10.0 µM)?
A: 8%

Q: And the kinase still bound, per cent of control ([29]; compound 10.0 µM)?
A: 79%

Q: What about the kinase still bound, per cent of control ([30]; compound 10.0 µM) of the same compound?
A: 100%

Q: And the kinase still bound, per cent of control ([31]; compound 10.0 µM)?
A: 100%

Q: And the kinase still bound, per cent of control ([32]; compound 10.0 µM)?
A: 97%

Q: And the kinase still bound, per cent of control ([33]; compound 10.0 µM)?
A: 100%

Q: And the kinase still bound, per cent of control ([34]; compound 10.0 µM)?
A: 100%

Q: What about the kinase still bound, per cent of control ([35]; compound 10.0 µM) of the same compound?
A: 3.2%

Q: And the kinase still bound, per cent of control ([36]; compound 10.0 µM)?
A: 100%

Q: What about the kinase still bound, per cent of control ([37]; compound 10.0 µM) of the same compound?
A: 90%

Q: What about the kinase still bound, per cent of control ([38]; compound 10.0 µM) of the same compound?
A: 100%

Q: And the kinase still bound, per cent of control ([39]; compound 10.0 µM)?
A: 100%

Q: And the kinase still bound, per cent of control ([40]; compound 10.0 µM)?
A: 100%

Q: What about the kinase still bound, per cent of control ([41]; compound 10.0 µM) of the same compound?
A: 80%

Q: What about the kinase still bound, per cent of control ([42]; compound 10.0 µM) of the same compound?
A: 100%
